Measured values from patent US12281121B2, “N-containing heteroaryl derivative and pharmaceutical composition comprising same as active ingredient for prevention or treatment of cancer” (VORONOI Inc., priority 2019, dated 2025).

What was measured:
[1] = target: T1, TYK2(JH1domain-catalytic) (Homo sapiens, UniProt P29597); test: ScanMAX Kinase analysis panel (DiscoverX); format: binding; conditions: read-out: adjusted percentage (% control)
T1 construct: TYK2(JH1domain-catalytic); purchased DiscoverX ScanMAX Kinase analysis panel
Experimental: (§1) The following experiment was performed in order to evaluate the inhibitory activity of the compound according to the present invention against more enzymes. Specifically, for Examples 1 and 3 selected among the Example compounds of the present invention, the enzyme (kinase) selectivity was set to be measured by commissioning DiscoverX, and an experiment was conducted using a ScanMAX™ Kinase analysis panel. In this case, the concentration of the drug treated with the enzyme was set to 1 μM in DMSO, the adjusted percentage (% control) was determined in the same manner as in the following Equation 1, and the results are shown in the following Table 3. (Example compound−Positive control)/(Negative control−Positive control)×100 [Equation 1]
(§2) In addition, the enzyme selectivity of the present invention was determined to be active against the corresponding enzyme when the adjusted percentage was <35% (that is, less than 35%).

EGFR(L858R, T790M) = target: T2, EGFR(L858R, T790M) (Homo sapiens, UniProt P00533, L858R/T790M); test: ScanMAX Kinase analysis panel (DiscoverX); format: binding; conditions: read-out: adjusted percentage (% control)
T2 construct: purchased DiscoverX
Experimental: as §1, §2

FRK = target: T3, FRK (Homo sapiens, UniProt P42685); test: ScanMAX Kinase analysis panel (DiscoverX); format: binding; conditions: read-out: adjusted percentage (% control)
T3 construct: purchased DiscoverX ScanMAX Kinase analysis panel
Experimental: as §1, §2

FGFR1 = target: T4, FGFR1 (Homo sapiens, UniProt P11362); test: ScanMAX Kinase analysis panel (DiscoverX); format: binding; conditions: read-out: adjusted percentage (% control)
T4 construct: purchased DiscoverX ScanMAX Kinase analysis panel
Experimental: as §1, §2

TRKB = target: T5, TRKB (Homo sapiens, UniProt Q16620); test: ScanMAX Kinase analysis panel (DiscoverX); format: binding; conditions: read-out: adjusted percentage (% control)
T5 construct: purchased DiscoverX ScanMAX Kinase analysis panel
Experimental: as §1, §2

[2] = target: T6, EGFR(L747-E749del, A750P) (Homo sapiens, UniProt P00533, A750P/DEL747-749); test: ScanMAX Kinase analysis panel (DiscoverX); format: binding; conditions: read-out: adjusted percentage (% control)
T6 construct: purchased DiscoverX
Experimental: as §1, §2

AXL = target: T7, AXL (Homo sapiens, UniProt P30530); test: ScanMAX Kinase analysis panel (DiscoverX); format: binding; conditions: read-out: adjusted percentage (% control)
T7 construct: purchased DiscoverX
Experimental: as §1, §2

SRC = target: T8, SRC (Homo sapiens, UniProt P12931); test: ScanMAX Kinase analysis panel (DiscoverX); format: binding; conditions: read-out: adjusted percentage (% control)
T8 construct: purchased DiscoverX ScanMAX Kinase analysis panel
Experimental: as §1, §2

FLT3-autoinhibited = target: T9, FLT3-autoinhibited (Homo sapiens, UniProt P36888); test: ScanMAX Kinase analysis panel (DiscoverX); format: binding; conditions: read-out: adjusted percentage (% control)
T9 construct: purchased DiscoverX ScanMAX Kinase analysis panel
Experimental: as §1, §2

YES = target: T10, YES (Homo sapiens, UniProt P07947); test: ScanMAX Kinase analysis panel (DiscoverX); format: binding; conditions: read-out: adjusted percentage (% control)
T10 construct: purchased DiscoverX ScanMAX Kinase analysis panel
Experimental: as §1, §2

[3] = target: T11, ABL1(Y253F)-phosphorylated (Homo sapiens, UniProt P00519, Y253F); test: ScanMAX Kinase analysis panel (DiscoverX); format: binding; conditions: read-out: adjusted percentage (% control)
T11 construct: purchased DiscoverX
Experimental: as §1, §2

AURKA = target: T12, AURKA (Homo sapiens, UniProt O14965); test: ScanMAX Kinase analysis panel (DiscoverX); format: binding; conditions: read-out: adjusted percentage (% control)
T12 construct: purchased DiscoverX
Experimental: as §1, §2

FLT3(D835H) = target: T13, FLT3(D835H) (Homo sapiens, UniProt P36888, D835H); test: ScanMAX Kinase analysis panel (DiscoverX); format: binding; conditions: read-out: adjusted percentage (% control)
T13 construct: purchased DiscoverX ScanMAX Kinase analysis panel
Experimental: as §1, §2

MERTK = target: T14, MERTK (Homo sapiens, UniProt Q12866); test: ScanMAX Kinase analysis panel (DiscoverX); format: binding; conditions: read-out: adjusted percentage (% control)
T14 construct: purchased DiscoverX ScanMAX Kinase analysis panel
Experimental: as §1, §2

EGFR(T790M) = target: T15, EGFR(T790M) (Homo sapiens, UniProt P00533, T790M); test: ScanMAX Kinase analysis panel (DiscoverX); format: binding; conditions: read-out: adjusted percentage (% control)
T15 construct: purchased DiscoverX ScanMAX Kinase analysis panel
Experimental: as §1, §2

[4] = target: T16, JAK1(JH1domain-catalytic) (Homo sapiens, UniProt P23458); test: ScanMAX Kinase analysis panel (DiscoverX); format: binding; conditions: read-out: adjusted percentage (% control)
T16 construct: JAK1(JH1domain-catalytic); purchased DiscoverX ScanMAX Kinase analysis panel
Experimental: as §1, §2

RET(V804L) = target: T17, RET(V804L) (Homo sapiens, UniProt P07949, V804L); test: ScanMAX Kinase analysis panel (DiscoverX); format: binding; conditions: read-out: adjusted percentage (% control)
T17 construct: purchased DiscoverX ScanMAX Kinase analysis panel
Experimental: as §1, §2

CCDC6-RET = target: T18, CCDC6-RET (Homo sapiens, UniProt P07949); test: RET enzyme inhibitory ability, ADP-Glo kinase assay; format: biochemical; conditions: ATP 10 μM, 25° C., 1 hour
T18 construct: the other entry of the earlier key: CCDC6 (Q16204, Coiled-coil domain-containing protein 6)
Outline: (§3)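 Purified human RET (658-end, 0.8 ng) was reacted with 10 μM ATP and substrate 1 h at 25°C in 40 mM Tris-HCl pH 7.4, 20 mM MgCl2, 0.5 mg/mL BSA, 50 μM DTT. ADP-Glo luminescence was normalised to solvent control; IC50 (nM) from 3 datasets.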

RET (V804M) = RET (V804M) (Homo sapiens, UniProt P07949, V804M); test: as above; format: biochemical; conditions: ATP 10 μM, 25° C., 1 hour
Outline: as §3

RET (WT) = target: T19, RET (WT) (Homo sapiens, UniProt P07949); test: as above; format: biochemical; conditions: ATP 10 μM, 25° C., 1 hour
T19 construct: human RET (658-end, SIGNALCHEM); purchased SIGNALCHEM
T19 sequence (P07949 658-1114 limits assumed): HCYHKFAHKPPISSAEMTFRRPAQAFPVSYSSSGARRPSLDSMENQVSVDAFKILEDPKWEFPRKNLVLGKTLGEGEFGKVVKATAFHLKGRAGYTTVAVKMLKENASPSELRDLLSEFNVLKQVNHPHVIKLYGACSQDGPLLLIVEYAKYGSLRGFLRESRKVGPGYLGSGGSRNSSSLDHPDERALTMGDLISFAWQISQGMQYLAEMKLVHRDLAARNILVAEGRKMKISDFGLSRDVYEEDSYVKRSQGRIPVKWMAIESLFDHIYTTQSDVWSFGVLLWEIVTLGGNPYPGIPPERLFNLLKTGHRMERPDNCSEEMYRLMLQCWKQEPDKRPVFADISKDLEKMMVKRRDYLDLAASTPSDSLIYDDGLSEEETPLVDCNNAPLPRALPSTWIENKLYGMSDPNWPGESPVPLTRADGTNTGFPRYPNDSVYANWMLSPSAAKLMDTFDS
Outline: as §3

T2 sequence (P00533 25-1210 T790M/L858R): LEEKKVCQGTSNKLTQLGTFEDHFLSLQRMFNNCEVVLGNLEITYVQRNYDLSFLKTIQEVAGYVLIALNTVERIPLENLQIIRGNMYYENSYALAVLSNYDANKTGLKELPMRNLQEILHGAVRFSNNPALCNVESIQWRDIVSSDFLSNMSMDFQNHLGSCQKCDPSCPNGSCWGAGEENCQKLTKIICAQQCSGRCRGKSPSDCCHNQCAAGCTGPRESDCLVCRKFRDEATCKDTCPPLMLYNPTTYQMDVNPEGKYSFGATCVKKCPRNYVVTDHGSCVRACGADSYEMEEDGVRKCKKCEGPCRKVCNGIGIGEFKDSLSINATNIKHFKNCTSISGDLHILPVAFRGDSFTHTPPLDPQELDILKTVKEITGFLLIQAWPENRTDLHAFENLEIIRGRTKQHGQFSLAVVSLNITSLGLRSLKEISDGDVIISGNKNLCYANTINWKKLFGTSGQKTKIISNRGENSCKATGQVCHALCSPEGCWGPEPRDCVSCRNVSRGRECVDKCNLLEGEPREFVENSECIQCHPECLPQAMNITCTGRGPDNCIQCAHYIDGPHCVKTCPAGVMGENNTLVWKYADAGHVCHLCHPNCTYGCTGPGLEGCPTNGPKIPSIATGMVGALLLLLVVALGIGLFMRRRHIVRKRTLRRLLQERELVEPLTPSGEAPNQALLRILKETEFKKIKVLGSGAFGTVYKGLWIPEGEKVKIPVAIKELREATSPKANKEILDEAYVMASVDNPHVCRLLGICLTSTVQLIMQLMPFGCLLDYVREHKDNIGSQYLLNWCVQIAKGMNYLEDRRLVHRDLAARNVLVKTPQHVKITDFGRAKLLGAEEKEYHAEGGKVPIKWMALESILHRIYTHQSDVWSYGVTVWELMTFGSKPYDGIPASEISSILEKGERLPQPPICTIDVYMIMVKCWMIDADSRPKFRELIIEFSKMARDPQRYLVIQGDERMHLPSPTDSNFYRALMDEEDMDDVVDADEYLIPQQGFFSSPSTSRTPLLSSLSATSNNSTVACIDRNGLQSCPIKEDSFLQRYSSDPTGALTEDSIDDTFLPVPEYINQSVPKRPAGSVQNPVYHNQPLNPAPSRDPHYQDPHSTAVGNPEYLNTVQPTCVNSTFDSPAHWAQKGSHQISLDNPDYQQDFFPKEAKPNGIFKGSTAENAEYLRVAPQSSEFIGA
T7 sequence (P30530 26-894): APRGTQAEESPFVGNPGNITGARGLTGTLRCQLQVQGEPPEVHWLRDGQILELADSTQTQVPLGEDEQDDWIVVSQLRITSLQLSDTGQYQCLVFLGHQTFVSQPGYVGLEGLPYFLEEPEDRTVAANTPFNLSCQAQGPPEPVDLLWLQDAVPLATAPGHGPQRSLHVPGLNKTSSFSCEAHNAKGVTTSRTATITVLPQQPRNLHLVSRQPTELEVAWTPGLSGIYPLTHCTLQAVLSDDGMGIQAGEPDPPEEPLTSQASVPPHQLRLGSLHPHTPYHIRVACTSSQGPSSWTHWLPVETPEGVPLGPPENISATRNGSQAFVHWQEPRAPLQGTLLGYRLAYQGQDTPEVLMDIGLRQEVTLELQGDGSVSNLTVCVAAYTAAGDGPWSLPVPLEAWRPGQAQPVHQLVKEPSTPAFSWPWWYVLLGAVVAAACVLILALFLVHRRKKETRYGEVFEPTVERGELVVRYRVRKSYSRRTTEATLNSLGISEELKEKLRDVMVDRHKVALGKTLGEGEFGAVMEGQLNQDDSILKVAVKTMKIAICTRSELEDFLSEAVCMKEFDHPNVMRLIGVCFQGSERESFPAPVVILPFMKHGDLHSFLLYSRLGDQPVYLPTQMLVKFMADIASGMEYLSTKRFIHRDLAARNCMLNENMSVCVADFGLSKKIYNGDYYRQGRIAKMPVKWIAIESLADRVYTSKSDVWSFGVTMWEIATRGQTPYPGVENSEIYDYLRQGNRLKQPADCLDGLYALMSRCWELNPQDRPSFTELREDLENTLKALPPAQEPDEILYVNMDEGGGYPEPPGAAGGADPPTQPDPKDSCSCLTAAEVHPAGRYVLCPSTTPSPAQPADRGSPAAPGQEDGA
T14 sequence (Q12866 21-999): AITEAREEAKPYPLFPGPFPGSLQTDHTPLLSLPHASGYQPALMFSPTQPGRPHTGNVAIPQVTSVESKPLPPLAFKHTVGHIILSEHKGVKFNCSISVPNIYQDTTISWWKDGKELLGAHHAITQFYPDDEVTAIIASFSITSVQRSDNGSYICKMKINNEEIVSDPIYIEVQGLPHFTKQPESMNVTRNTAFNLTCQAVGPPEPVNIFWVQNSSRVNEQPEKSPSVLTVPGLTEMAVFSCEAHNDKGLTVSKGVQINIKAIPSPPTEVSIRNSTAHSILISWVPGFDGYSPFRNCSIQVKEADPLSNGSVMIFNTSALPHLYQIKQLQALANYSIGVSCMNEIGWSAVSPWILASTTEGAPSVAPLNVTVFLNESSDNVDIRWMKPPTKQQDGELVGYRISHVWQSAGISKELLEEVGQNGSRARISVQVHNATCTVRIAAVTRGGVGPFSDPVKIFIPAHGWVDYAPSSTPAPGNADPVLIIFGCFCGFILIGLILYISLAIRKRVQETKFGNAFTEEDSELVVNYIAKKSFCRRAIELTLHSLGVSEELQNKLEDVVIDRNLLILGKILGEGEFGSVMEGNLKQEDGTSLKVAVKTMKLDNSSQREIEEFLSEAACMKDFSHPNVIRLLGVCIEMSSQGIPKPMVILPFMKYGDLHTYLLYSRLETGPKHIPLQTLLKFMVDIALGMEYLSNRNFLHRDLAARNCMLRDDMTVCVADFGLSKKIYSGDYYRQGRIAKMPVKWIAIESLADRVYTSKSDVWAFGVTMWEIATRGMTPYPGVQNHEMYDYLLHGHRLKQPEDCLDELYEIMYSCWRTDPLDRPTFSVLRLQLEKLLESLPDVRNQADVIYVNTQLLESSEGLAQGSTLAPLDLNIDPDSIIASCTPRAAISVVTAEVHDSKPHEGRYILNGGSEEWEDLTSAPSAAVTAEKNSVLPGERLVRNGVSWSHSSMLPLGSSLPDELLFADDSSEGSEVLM
RET (V804M), sequence (P07949 658-1114 V804M limits assumed): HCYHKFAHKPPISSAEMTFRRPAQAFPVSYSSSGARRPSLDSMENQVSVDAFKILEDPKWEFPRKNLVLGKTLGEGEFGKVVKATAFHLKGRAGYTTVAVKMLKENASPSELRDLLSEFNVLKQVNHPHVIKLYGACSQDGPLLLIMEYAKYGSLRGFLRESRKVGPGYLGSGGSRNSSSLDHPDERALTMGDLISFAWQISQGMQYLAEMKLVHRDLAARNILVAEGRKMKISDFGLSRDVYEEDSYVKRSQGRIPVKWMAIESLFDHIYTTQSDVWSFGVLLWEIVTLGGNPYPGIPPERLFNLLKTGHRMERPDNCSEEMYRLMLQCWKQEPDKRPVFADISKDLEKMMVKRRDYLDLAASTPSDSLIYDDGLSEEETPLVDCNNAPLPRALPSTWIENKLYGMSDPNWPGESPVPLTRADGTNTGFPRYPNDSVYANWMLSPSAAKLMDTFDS
T5 sequence (Q16620 32-822): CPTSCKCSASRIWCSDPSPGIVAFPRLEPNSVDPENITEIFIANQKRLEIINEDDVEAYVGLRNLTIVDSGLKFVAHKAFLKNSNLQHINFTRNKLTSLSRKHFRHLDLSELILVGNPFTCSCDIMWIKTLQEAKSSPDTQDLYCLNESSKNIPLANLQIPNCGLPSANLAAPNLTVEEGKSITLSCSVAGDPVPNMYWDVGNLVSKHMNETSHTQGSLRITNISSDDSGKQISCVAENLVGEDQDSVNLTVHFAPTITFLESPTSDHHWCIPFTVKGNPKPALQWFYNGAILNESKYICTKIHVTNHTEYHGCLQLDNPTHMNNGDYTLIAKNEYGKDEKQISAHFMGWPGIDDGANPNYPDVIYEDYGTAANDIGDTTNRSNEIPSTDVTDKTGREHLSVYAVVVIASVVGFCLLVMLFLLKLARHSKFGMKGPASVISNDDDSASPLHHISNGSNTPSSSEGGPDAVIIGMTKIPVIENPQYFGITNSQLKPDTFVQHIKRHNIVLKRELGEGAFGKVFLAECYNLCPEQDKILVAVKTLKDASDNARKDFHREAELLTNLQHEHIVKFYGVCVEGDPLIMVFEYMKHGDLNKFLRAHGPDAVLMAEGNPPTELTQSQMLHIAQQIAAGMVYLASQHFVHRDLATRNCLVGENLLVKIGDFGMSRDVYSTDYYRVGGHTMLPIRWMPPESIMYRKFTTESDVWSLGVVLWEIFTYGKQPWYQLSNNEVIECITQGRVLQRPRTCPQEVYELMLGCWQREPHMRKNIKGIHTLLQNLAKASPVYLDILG
T10 sequence (P07947 whole entry): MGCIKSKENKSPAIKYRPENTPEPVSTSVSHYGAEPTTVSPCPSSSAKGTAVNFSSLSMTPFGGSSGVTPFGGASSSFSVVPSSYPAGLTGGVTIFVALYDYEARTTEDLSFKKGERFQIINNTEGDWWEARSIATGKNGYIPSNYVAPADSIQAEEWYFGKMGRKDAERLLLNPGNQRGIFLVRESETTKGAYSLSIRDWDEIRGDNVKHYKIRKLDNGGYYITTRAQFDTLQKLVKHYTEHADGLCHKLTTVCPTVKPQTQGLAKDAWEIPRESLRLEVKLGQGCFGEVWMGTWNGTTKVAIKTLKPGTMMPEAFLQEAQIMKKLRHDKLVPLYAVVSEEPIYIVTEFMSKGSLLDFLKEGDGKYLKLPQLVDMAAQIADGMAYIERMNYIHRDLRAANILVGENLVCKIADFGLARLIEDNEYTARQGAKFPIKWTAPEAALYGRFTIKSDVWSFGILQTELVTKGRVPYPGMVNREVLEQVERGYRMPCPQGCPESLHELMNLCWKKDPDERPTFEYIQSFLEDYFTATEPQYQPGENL

| Structure (SMILES) | remaining binding at 1 µM [1] [%] | remaining binding at 1 µM (EGFR(L858R, T790M)) [%] | remaining binding at 1 µM (FRK) [%] | remaining binding at 1 µM (FGFR1) [%] | remaining binding at 1 µM (TRKB) [%] | remaining binding at 1 µM [2] [%] | remaining binding at 1 µM (AXL) [%] | remaining binding at 1 µM (SRC) [%] | remaining binding at 1 µM (FLT3-autoinhibited) [%] | remaining binding at 1 µM (YES) [%] | remaining binding at 1 µM [3] [%] | remaining binding at 1 µM (AURKA) [%] | remaining binding at 1 µM (FLT3(D835H)) [%] | remaining binding at 1 µM (MERTK) [%] | remaining binding at 1 µM (EGFR(T790M)) [%] | remaining binding at 1 µM [4] [%] | remaining binding at 1 µM (RET(V804L)) [%] | IC50 (CCDC6-RET) [nM] | IC50 (RET (V804M)) [nM] | IC50 (RET (WT)) [nM] |
| --- | --- | --- | --- | --- | --- | --- | --- | --- | --- | --- | --- | --- | --- | --- | --- | --- | --- | --- | --- | --- |
| COc1ccc(CN2C3CC2CN(c2ccc(-c4nc(Nc5cc(C)[nH]n5)c5occc5n4)cn2)C3)cn1 [Example 1, 2-(6-(6-((6-methoxypyridin-3-yl)methyl)-3,6-diazabicyclo[3.1.1]heptan-3-yl)pyridin-3-yl)-N-(5-methyl-1H-pyrazol-3-yl)furo[3,2-d]pyrimidin-4-amine] | 0.2 | 6.9 | 18 | 11 | 1.6 | 16 | 1.2 | 0.7 | 9.8 | 11 | 20 | 4.1 | 6.7 | 34 | 8.1 | 15 | 1.1 | 1.8 | 2.2 | 18 |
| COc1ccc(CN2C3CC2CN(c2ccc(-c4nc(Nc5cc(C)[nH]n5)c5ccccc5n4)cn2)C3)cn1 [Example 3, 2-(6-(6-((6-methoxypyridin-3-yl)methyl)-3,6-diazabicyclo [3.1.1]heptan-3-yl)pyridin-3-yl)-N-(5-methyl-1H-pyrazol-3-yl)quinazolin-4-amine] | 5.3 | 6.6 | 34 | 4.3 | 2.1 | 17 | 0 | 0 | 11 | 3.8 | 21 | 2.2 | 2.7 | 6.2 | 16 | 9.7 | 0.4 | 0.9 | 0.7 | 7 |
